According to patent US10890591B2, “Methods and dose packs for monitoring medication adherence” (Synapse Biosciences, LLC, priority 2016, dated 2021):

Tests used:
clinical [1] = conditions: human, in vivo
Source text: (§1) All other markers were obtained from commercial sources. Urine and saliva were collected prior to each day's dosing of marker confirming the presence or absence of markers before the experiment started. […] The presence of all 7 markers at day 8 would confirm that all markers were ingested in the previous 7 day one week period.
(§2) Healthy volunteers with no recent exposure to the markers who were not currently taking prescribed medications, OTC medications or vitamins and supplements were chosen. Exposure to the markers more than one month before starting the experiment was allowed and no dietary restrictions were required. Subjects were given a 7 day blister pack with markers sequenced in the order above. Subjects verbally confirmed they understood the urine and saliva collection procedures. Instructions printed on the marker blister pack instructed subjects to collect urine and saliva each morning before they took the daily dose of marker. They were also instructed to take the daily dose of marker close to the same time each day.

clinical [2] = conditions: human, in vivo; remark: listed apart in the source
Source text: as §1, §2

CNC(=C[N+](=O)[O-])NCCSCc1ccc(CN(C)C)o1 [Ranitidine]
Subject C, Urine Results (clinical [1]; 1 day): 0 ng/m
Subject D, Urine Results (clinical [1]; 1 day): 0 ng/m
Subject C, Urine Results (clinical [1]; 2 day): 4930 ng/m
Subject D, Urine Results (clinical [1]; 2 day): 4910 ng/m
Subject C, Urine Results (clinical [1]; 3 day): 492 ng/m
Subject D, Urine Results (clinical [1]; 3 day): 300 ng/m
Subject C, Urine Results (clinical [1]; 4 day): 68.3 ng/m
Subject D, Urine Results (clinical [1]; 4 day): 51.5 ng/m
Subject C, Urine Results (clinical [1]; 5 day): 41.9 ng/m
Subject D, Urine Results (clinical [1]; 5 day): 39.4 ng/m
Subject C, Urine Results (clinical [1]; 6 day): 39.6 ng/m
Subject D, Urine Results (clinical [1]; 6 day): 22.6 ng/m
Subject C, Urine Results (clinical [1]; 7 day): 25.2 ng/m
Subject D, Urine Results (clinical [1]; 7 day): 14 ng/m
Subject C, Urine Results (clinical [1]; 8 day): 23.5 ng/m
Subject D, Urine Results (clinical [1]; 8 day): 12.1 ng/m
concentration at 1 day (clinical [1]; Average of Urine Samples): 0 ng/mL
concentration at 2 day (clinical [1]; Average of Urine Samples): 3720 ng/mL
concentration at 3 day (clinical [1]; Average of Urine Samples): 351 ng/mL
concentration at 4 day (clinical [1]; Average of Urine Samples): 56.5 ng/mL
concentration at 5 day (clinical [1]; Average of Urine Samples): 40.7 ng/mL
concentration at 6 day (clinical [1]; Average of Urine Samples): 34.3 ng/mL
concentration at 7 day (clinical [1]; Average of Urine Samples): 13.9 ng/mL
concentration at 8 day (clinical [1]; Average of Urine Samples): 10.4 ng/mL
concentration at 1 day (clinical [1]; Subject A, Urine Results): 0 ng/mL
concentration at 2 day (clinical [1]; Subject A, Urine Results): 801 ng/mL
concentration at 3 day (clinical [1]; Subject A, Urine Results): 156 ng/mL
concentration at 4 day (clinical [1]; Subject A, Urine Results): 63.4 ng/mL
concentration at 5 day (clinical [1]; Subject A, Urine Results): 61.8 ng/mL
concentration at 6 day (clinical [1]; Subject A, Urine Results): 58.5 ng/mL
concentration at 7 day (clinical [1]; Subject A, Urine Results): 11.2 ng/mL
concentration at 8 day (clinical [1]; Subject A, Urine Results): 1.16 ng/mL
concentration at 1 day (clinical [1]; Subject B, Urine Results): 0 ng/mL
concentration at 3 day (clinical [1]; Subject B, Urine Results): 456 ng/mL
concentration at 1 day (clinical [2]): 0 ng/mL
concentration at 2 day (clinical [2]): 16.8 ng/mL
concentration at 3 day (clinical [2]): 1.56 ng/mL
concentration at 4 day (clinical [2]): 0.562 ng/mL
concentration at 5 day (clinical [2]): 0.366 ng/mL
concentration at 6 day (clinical [2]): 0.176 ng/mL
concentration at 7 day (clinical [2]): 0.0757 ng/mL
concentration at 8 day (clinical [2]): 0.048 ng/mL

Cc1cc2nc3c(=O)[nH]c(=O)nc-3n(C[C@H](O)[C@H](O)[C@H](O)CO)c2cc1C [Riboflavin]
Subject C, Urine Results (clinical [1]; 1 day): 1210 ng/m
Subject D, Urine Results (clinical [1]; 1 day): 819 ng/m
Subject C, Urine Results (clinical [1]; 2 day): 4940 ng/m
Subject D, Urine Results (clinical [1]; 2 day): 1290 ng/m
Subject C, Urine Results (clinical [1]; 3 day): 3150 ng/m
Subject D, Urine Results (clinical [1]; 3 day): 5190 ng/m
Subject C, Urine Results (clinical [1]; 4 day): 3150 ng/m
Subject D, Urine Results (clinical [1]; 4 day): 4330 ng/m
Subject C, Urine Results (clinical [1]; 5 day): 1230 ng/m
Subject D, Urine Results (clinical [1]; 5 day): 1730 ng/m
Subject C, Urine Results (clinical [1]; 6 day): 1680 ng/m
Subject D, Urine Results (clinical [1]; 6 day): 2120 ng/m
Subject C, Urine Results (clinical [1]; 7 day): 4450 ng/m
Subject D, Urine Results (clinical [1]; 7 day): 3200 ng/m
Subject C, Urine Results (clinical [1]; 8 day): 9920 ng/m
Subject D, Urine Results (clinical [1]; 8 day): 3310 ng/m
concentration at 1 day (clinical [1]; Average of Urine Samples): 2240 ng/mL
concentration at 2 day (clinical [1]; Average of Urine Samples): 2490 ng/mL
concentration at 3 day (clinical [1]; Average of Urine Samples): 2960 ng/mL
concentration at 4 day (clinical [1]; Average of Urine Samples): 5130 ng/mL
concentration at 5 day (clinical [1]; Average of Urine Samples): 2110 ng/mL
concentration at 6 day (clinical [1]; Average of Urine Samples): 2270 ng/mL
concentration at 7 day (clinical [1]; Average of Urine Samples): 3100 ng/mL
concentration at 8 day (clinical [1]; Average of Urine Samples): 5710 ng/mL
concentration at 3 day (clinical [1]; Subject B, Urine Results): 3040 ng/mL
concentration at 1 day (clinical [2]): 85.5 ng/mL
concentration at 2 day (clinical [2]): 92 ng/mL
concentration at 3 day (clinical [2]): 58.2 ng/mL
concentration at 4 day (clinical [2]): 45.5 ng/mL
concentration at 5 day (clinical [2]): 37.3 ng/mL
concentration at 6 day (clinical [2]): 85.5 ng/mL
concentration at 7 day (clinical [2]): 40.8 ng/mL
concentration at 8 day (clinical [2]): 43.1 ng/mL
